Measured values: US8227419B2, “Method of treating conditions associated with airway tissue remodeling” (CRC For Asthma and Airways Ltd., priority 2006, dated 2012)
Entries after “also recorded” stand apart in the source; their conditions may differ. Where a SMILES comes first, the peptide text is derived from it.

Columns and labels:
[1] = tested on: primary lung endothelial cells; assay: MTT proliferation assay, primary lung endothelial cells; assay type: cell-based, human; settings: peptide 4.5 μM; day 3, 7 and 9; n=5 cell lines
Experimental: Human pulmonary endothelial cells were isolated from bronchial tissue obtained during lung transplantation. Blood vessels were dissected free from surrounding tissue and cut longitudinally and then cut into approximately 5 mm segments. Blood vessel segments were then placed in a 15 ml falcon tube containing 10 ml of digestive buffer, (1 mg (250 U)/ml type 2 collagenase, 1 U/ml dispase, 10 mg/ml BSA) the tube was placed in the incubator for 10 minutes and agitated every 2 minutes. Digestive mixture was changed every 10 minutes for a total of 50 minutes. 1/10 volume of FBS was added to the supernantants that were removed every 10 minutes. Supernatants were then centrifuged at 200 g for 5 minutes. Supernantants were removed and cells were washed with culture medium, this contained 10% FBS, 10 μg/ml endothelial cell growth supplement, 20 U/ml heparin and 2% antibiotics, and centrifuged at 200 g for 5 minutes. Supernantants were removed and cells were placed in 75 cm^2 vented tissue culture flasks (Falcon Labware) containing 10 ml of culture medium, and incubated for 1 hour at 37° C. […] Proliferation was assessed using an MTT assay (SIGMA-aldrich, Missouri, USA) at day 3, 7 and 9. […] The specific absorption of each well was measured at 690 nm (reference) and 570 nm.

[2] = tested on: asthmatic smooth muscle cells; assay: MTT proliferation assay, asthmatic airway smooth muscle cells; assay type: cell-based, human; settings: peptide 4.5 μM; all timepoints of FIG. 11; n=4 ASM cell lines
From the text: Human airway smooth muscle cells were isolated by microdissection from bronchial tissue obtained from either bronchoscopy, lung tissue obtained from lung transplants, or lung tissue resected at thoracotomy. Ethical approval for the use of the lung tissue for/in vitro/experimentation was granted by the Human Ethics Committee of the University of Sydney, and the Sydney South West Area Health Service, and informed consent was received from all subjects. Asthmatic ASM cells were isolated from airway biopsies, and all but one of the non asthmatic derived ASM cells were isolated from either resected lung tissue, or lung transplantation (both donor and recipient) This isolation and culture of ASM cells was carried out according to a method described by Johnson et al. 1995. Briefly, with the use of a dissecting microscope, sterile equipment and aseptic technique, bronchial airways were dissected from the surrounding parenchyma and cut longitudinally. The bronchi were then briefly dipped in 70% (v/v) ethanol in water to kill any surface organisms. The bronchi were then washed in sterile Hanks balanced salt solution three times and pinned down in a sterile Petri dish with the epithelial surface facing upwards. […] Proliferation was assessed using an MTT assay (SIGMA-aldrich, Missouri, USA) at day 3, 7 and 9. […] The specific absorption of each well was measured at 690 nm (reference) and 570 nm.

Compound	inhibition of proliferation of primary lung endothelial cells [1]	inhibition of FBS-induced proliferation of asthmatic smooth muscle cells [2]
CSCC[C@H](NC(=O)[C@@H](NC(=O)[C@@H](NC(=O)[C@H](Cc1ccccc1)NC(=O)[C@H](CCCNC(=N)N)NC(=O)[C@H](CCC(N)=O)NC(=O)[C@@H](N)CC(C)C)[C@@H](C)O)[C@@H](C)O)C(=O)N1CCC[C@H]1C(=O)N[C@@H](Cc1ccccc1)C(=O)N[C@@H](CC(C)C)C(=O)N[C@@H](Cc1ccccc1)C(=O)N[C@@H](CS)C(=O)N[C@@H](CC(N)=O)C(=O)N[C@H](C(=O)N[C@@H](CC(N)=O)C(=O)N[C@@H](CC(=O)O)C(=O)N[C@H](C(=O)N[C@@H](CS)C(=O)N[C@@H](CC(N)=O)C(=O)N[C@@H](Cc1ccccc1)C(=O)O)C(C)C)C(C)C [T3] (H-LQRFTTMPFLFCNVNDVCNF-OH; N-terminus and C-terminus assumed)	able to inhibit the proliferation; also recorded: significantly inhibited by the presence of T3 peptide at all timepoints	Neither T3 nor T7 peptides were shown to be able to inhibit; also recorded: not inhibited
CSCC[C@H](NC(=O)[C@@H](N)[C@@H](C)O)C(=O)N1CCC[C@H]1C(=O)N[C@@H](Cc1ccccc1)C(=O)N[C@@H](CC(C)C)C(=O)N[C@@H](Cc1ccccc1)C(=O)N[C@@H](CS)C(=O)N[C@@H](CC(N)=O)C(=O)N[C@H](C(=O)N[C@@H](CC(N)=O)C(=O)N[C@@H](CC(=O)O)C(=O)N[C@H](C(=O)N[C@@H](CS)C(=O)N[C@@H](CC(N)=O)C(=O)N[C@@H](Cc1ccccc1)C(=O)N[C@@H](C)C(=O)N[C@@H](CO)C(=O)N[C@@H](CCCNC(=N)N)C(=O)N[C@@H](CC(N)=O)C(=O)N[C@@H](CC(=O)O)C(=O)N[C@@H](Cc1ccc(O)cc1)C(=O)N[C@@H](CO)C(=O)N[C@@H](Cc1ccc(O)cc1)C(=O)N[C@@H](Cc1c[nH]c2ccccc12)C(=O)N[C@@H](CC(C)C)C(=O)O)C(C)C)C(C)C [T7] (H-TMPFLFCNVNDVCNFASRNDYSYWL-OH; N-terminus and C-terminus assumed)	able to inhibit the proliferation; also recorded: inhibited proliferation at both day 7 and day 9	Neither T3 nor T7 peptides were shown to be able to inhibit; also recorded: not inhibited
